# According to patent US11021446B2 (NOVARTIS AG, priority 2013, dated 2021):
# Target: T1, human Farnesoid X Receptor (FXR) ligand binding domain (GST-FXR LBD) (Homo sapiens, UniProt Q96RI1)
# T1 construct: purchased Invitrogen
# T1 sequence (Q96RI1 193-472 isoform Q96RI1-2): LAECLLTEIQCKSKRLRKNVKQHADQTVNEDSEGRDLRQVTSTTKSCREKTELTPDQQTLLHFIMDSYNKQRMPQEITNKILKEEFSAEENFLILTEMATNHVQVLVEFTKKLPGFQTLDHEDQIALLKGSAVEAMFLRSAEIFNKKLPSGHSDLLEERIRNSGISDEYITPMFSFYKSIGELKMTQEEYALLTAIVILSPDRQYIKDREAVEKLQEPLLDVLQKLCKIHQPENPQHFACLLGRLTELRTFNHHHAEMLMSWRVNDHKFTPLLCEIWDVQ
# Test: Human GST-FXR LBD co-activator interaction assay (FXR HTRF assay)
# Assay type: biochemical
# Settings: GST-FXR LBD interaction with biotin-labeled SRC-1 peptide, FRET, response relative to GW4064, read-out: FXR coactivator interaction assay (HTRF)
# Description: Human GST-FXR LBD Co-Activator Interaction Assay
# The FXR HTRF assay is a biochemical assay measuring the interaction between FXR and a coactivator protein (SRC1). The ligand-induced interaction with a coactivator protein is a critical step in transcriptional activation by FXR. Thus, this is an assay designed to measure FXR agonist activity of the test compounds.
# Recombinant human Farnesoid X Receptor (FXR) ligand binding domain (amino acids 193-472) fused to glutathione S-transferase (GST) purified protein (GST-FXR LBD) was purchased (Invitrogen). The ligand-dependent interaction between GST-FXR LBD and a peptide derived from Steroid Receptor Coactivator-1 (SRC-1) was monitored by Fluorescence Resonance Energy Transfer (FRET). […] Test compounds (in DMSO solution) and detection reagents (anti-GST-Cryptate labeled antibody and Streptavidin-XL665 conjugate; CisBio) were added in assay buffer containing 50 mM KF. Plates are incubated at room temperature in the dark for 2.5 hrs before reading on an Envision (PerkinElmer) at 665 nm and 590 nm. The HTRF assay results were calculated from the 665 nm/590 nm ratio (ratio=(A665 nm/A590 nm)×10^4) and expressed in Delta F %=(Ratiosample−Rationegative)/Rationegative×100.
# A negative control (without Streptavidin-XL665) was run with each assay and represented the background fluorescence. A reference FXR agonist, (E)-3-(2-chloro-4-((3-(2,6-dichlorophenyl)-5-isopropylisoxazol-4-yl)methoxy)styryl)benzoic acid (Compound GW4064), was included in each experiment as positive control. The efficacy of each test compound was compared to that of GW4064. At each concentration, the relative activity of the test compound was expressed as Response %=(Rsample−RDMSO)/(Rpositive−RDMSO), where Rsample is the HTRF response (expressed in Delta F %) for the test compound, Rpositive is the maximal response for GW4064 at saturating concentrations, and RDMSO is the response for DMSO control. The EC50 values were calculated using GraphPad Prism (GraphPad Software) using non-linear regression curve fit (log(agonist) vs. response-variable slope (four parameters)).
row,SMILES,EC50
1,"Cn1nc(C(=O)N(CC(=O)Nc2cccc(C(=O)O)c2)Cc2ccccc2F)c2c1-c1ccccc1OC2 [Compound 12, 3-(2-(N-(2-fluorobenzyl)-1-methyl-1,4-dihydrochromeno[4,3-c]pyrazole-3-carboxamido)acetamido)benzoic acid]",5.4 nM
2,"Cn1nc(C(=O)N(CC(=O)Nc2cccc(C(=O)O)c2)Cc2ccccc2F)c2c1-c1cc(F)cc(F)c1OC2 [Compound 11, 3-(2-(6,8-difluoro-N-(2-fluorobenzyl)-1-methyl-1,4-dihydrochromeno[4,3-c]pyrazole-3-carboxamido)acetamido)benzoic acid]",3.3 nM
3,"Cn1nc(C(=O)N(CC(=O)Nc2cc(C(=O)O)ccc2F)Cc2cccc(F)c2)c2c1-c1cc(Cl)ccc1OC2 [Compound 28, 3-(2-(8-chloro-N-(3-fluorobenzyl)-1-methyl-1,4-dihydrochromeno[4,3-c]pyrazole-3-carboxamido)acetamido)-4-fluorobenzoic acid]",0.38 nM
4,"Cc1cccc(CN(Cc2ccc(C(=O)O)cc2F)C(=O)c2nn(C)c3c2COc2ccc(Cl)cc2-3)c1 [Compound 84, 4-((8-chloro-1-methyl-N-(3-methylbenzyl)-1,4-dihydrochromeno[4,3-c]pyrazole-3-carboxamido)methyl)-3-fluorobenzoic acid]",18 nM
5,"Cn1nc(C(=O)N(CCOc2ccc(C(=O)O)cc2F)Cc2cccc(F)c2)c2c1-c1cc(F)c(F)cc1OC2 [Compound 59, 4-(2-(7,8-difluoro-N-(3-fluorobenzyl)-1-methyl-1,4-dihydrochromeno[4,3-c]pyrazole-3-carboxamido)ethoxy)-3-fluorobenzoic acid]",28 nM
6,"Cn1nc(C(=O)N(CC(=O)Nc2cc(C(=O)O)ccc2F)CC2CCCC2)c2c1-c1cc(Cl)ccc1OC2 [Compound 36, 3-(2-(8-chloro-N-(cyclopentylmethyl)-1-methyl-1,4-dihydrochromeno[4,3-c]pyrazole-3-carboxamido)acetamido)-4-fluorobenzoic Acid]",33 nM
7,"Cn1nc(C(=O)N(CC(=O)Nc2cc(C(=O)O)ccc2F)Cc2cccc(F)c2)c2c1-c1ccccc1OC2 [Compound 27, 4-fluoro-3-(2-(N-(3-fluorobenzyl)-1-methyl-1,4-dihydrochromeno[4,3-c]pyrazole-3-carboxamido)acetamido)benzoic acid]",1.4 nM
8,"Cn1nc(C(=O)N(CC(=O)Nc2cc(C(=O)O)ccc2F)Cc2ccccc2)c2c1-c1cc(Cl)ccc1OC2 [Compound 29, 3-(2-(N-benzyl-8-chloro-1-methyl-1,4-dihydrochromeno[4,3-c]pyrazole-3-carboxamido)acetamido)-4-fluorobenzoic acid]",0.67 nM
9,"Cn1nc(C(=O)N(CC(=O)Nc2cccc(C(=O)O)c2)CC2CCCC2)c2c1-c1cc(Cl)ccc1OC2 [Compound 37, 3-(2-(8-chloro-N-(cyclopentylmethyl)-1-methyl-1,4-dihydrochromeno[4,3-c]pyrazole-3-carboxamido)acetamido)benzoic Acid]",24 nM
10,"Cn1nc(C(=O)N(CCNc2cc(C(=O)O)ccc2F)Cc2cccc(F)c2)c2c1-c1cc(Cl)ccc1OC2 [Compound 65, 3-((2-(8-chloro-N-(3-fluorobenzyl)-1-methyl-1,4-dihydrochromeno[4,3-c]pyrazole-3-carboxamido)ethyl)amino)-4-fluorobenzoic Acid]",7 nM
11,"Cn1nc(C(=O)N(CCOc2cccc(C(=O)O)c2)Cc2ccccc2F)c2c1-c1cc(Cl)ccc1OC2 [Compound 44, 3-(2-(8-chloro-N-(2-fluorobenzyl)-1-methyl-1,4-dihydrochromeno[4,3-c]pyrazole-3-carboxamido)ethoxy)benzoic acid]",11 nM
12,"Cn1nc(C(=O)N(CC(=O)Nc2cccc(C(=O)O)c2)Cc2ccccc2F)c2c1-c1cc(Cl)c(F)cc1OC2 [Compound 25, 3-(2-(8-chloro-7-fluoro-N-(2-fluorobenzyl)-1-methyl-1,4-dihydrochromeno[4,3-c]pyrazole-3-carboxamido)acetamido)benzoic acid]",0.7 nM
13,"Cn1nc(C(=O)N(CCNc2cc(C(=O)O)ccc2F)Cc2ccccc2F)c2c1-c1cc(Cl)ccc1OC2 [Compound 101, 3-((2-(8-chloro-N-(2-fluorobenzyl)-1-methyl-1,4-dihydrochromeno[4,3-c]pyrazole-3-carboxamido)ethyl)amino)-4-fluorobenzoic Acid]",5.5 nM
14,"Cn1nc(C(=O)N(CCOc2ccc(C(=O)O)cc2F)Cc2ccccc2F)c2c1-c1cc(F)c(F)cc1OC2 [Compound 62, 4-(2-(7,8-difluoro-N-(2-fluorobenzyl)-1-methyl-1,4-dihydrochromeno[4,3-c]pyrazole-3-carboxamido)ethoxy)-3-fluorobenzoic acid]",74 nM
15,"Cn1nc(C(=O)N(CCOc2c(F)cc(C(=O)O)cc2F)Cc2ccccc2F)c2c1-c1cc(F)ccc1OC2 [Compound 53, 3,5-difluoro-4-(2-(8-fluoro-N-(2-fluorobenzyl)-1-methyl-1,4-dihydrochromeno[4,3-c]pyrazole-3-carboxamido)ethoxy)benzoic acid]",17 nM
16,"Cn1nc(C(=O)N(CC(=O)Nc2cc(C(=O)O)ccc2F)Cc2ccccc2)c2c1-c1ccccc1OC2 [Compound 33, 3-(2-(N-benzyl-1-methyl-1,4-dihydrochromeno[4,3-c]pyrazole-3-carboxamido)acetamido)-4-fluorobenzoic acid]",1.5 nM
17,"Cn1nc(C(=O)N(CCOc2ccc(C(=O)O)cc2F)Cc2ccccc2)c2c1-c1cc(F)c(F)cc1OC2 [Compound 57, 4-(2-(N-benzyl-7,8-difluoro-1-methyl-1,4-dihydrochromeno[4,3-c]pyrazole-3-carboxamido)ethoxy)-3-fluorobenzoic acid]",30 nM
18,"Cn1nc(C(=O)N(Cc2ccc(C(=O)O)cc2)Cc2ccccc2F)c2c1-c1cc(Cl)ccc1OC2 [Compound 92, 4-((8-chloro-N-(2-fluorobenzyl)-1-methyl-1,4-dihydrochromeno[4,3-c]pyrazole-3-carboxamido)methyl)benzoic acid]",14 nM
19,Cc1ccc(C(=O)O)cc1NC(=O)CN(Cc1ccccc1F)C(=O)c1nn(C)c2c1COc1ccc(Cl)cc1-2 [Compound 39],5.9 nM
20,"Cn1nc(C(=O)N(CC(=O)Nc2cc(C(=O)O)ccc2F)Cc2cccc(F)c2)c2c1-c1cc(F)c(F)cc1OC2 [Compound 18, 3-(2-(7,8-difluoro-N-(3-fluorobenzyl)-1-methyl-1,4-dihydrochromeno[4,3-c]pyrazole-3-carboxamido)acetamido)-4-fluorobenzoic acid]",0.4 nM
21,Cn1nc(C(=O)N(CC(=O)Nc2cccc(C(=O)O)c2)Cc2ccccc2F)c2c1-c1cc(F)c(F)cc1OC2 [Compound 10],1.7 nM
22,"Cc1cccc(CN(CC(=O)Nc2cc(C(=O)O)ccc2F)C(=O)c2nn(C)c3c2COc2ccc(F)cc2-3)c1 [Compound 20, 4-fluoro-3-(2-(8-fluoro-1-methyl-N-(3-methylbenzyl)-1,4-dihydrochromeno[4,3-c]pyrazole-3-carboxamido)acetamido)benzoic acid]",0.5 nM
23,"Cn1nc(C(=O)N(Cc2ccccc2)Cc2ccc(C(=O)O)cc2F)c2c1-c1cc(Cl)ccc1OC2 [Compound 76, 4-((N-benzyl-8-chloro-1-methyl-1,4-dihydrochromeno[4,3-c]pyrazole-3-carboxamido)methyl)-3-fluorobenzoic acid]",9.6 nM
24,"Cc1cc(F)cc(CN(Cc2ccc(C(=O)O)cc2)C(=O)c2nn(C)c3c2COc2ccc(Cl)cc2-3)c1 [Compound 82, 4-((8-chloro-N-(3-fluoro-5-methylbenzyl)-1-methyl-1,4-dihydrochromeno[4,3-c]pyrazole-3-carboxamido)methyl)benzoic acid]",12 nM
25,"Cn1nc(C(=O)N(Cc2ccccc2)Cc2ccc(C(=O)O)cc2)c2c1-c1cc(Cl)ccc1OC2 [Compound 75, 4-((N-benzyl-8-chloro-1-methyl-1,4-dihydrochromeno[4,3-c]pyrazole-3-carboxamido)methyl)benzoic Acid]",6 nM
26,"Cn1nc(C(=O)N(CCOc2c(F)cc(C(=O)O)cc2F)Cc2ccccc2)c2c1-c1cc(Cl)ccc1OC2 [Compound 52, 4-(2-(N-benzyl-8-chloro-1-methyl-1,4-dihydrochromeno[4,3-c]pyrazole-3-carboxamido)ethoxy)-3,5-difluorobenzoic acid]",2.6 nM
